According to patent US20130324489A1, “NEW ANTIFUNGAL COMPOSITIONS” (DSM IP ASSETS B.V., priority 2011, published 2013):
Several values for one entry are separate records, joined by “and”; a condition that tells them apart may be missing. Equal values may be shown once.

Legend:
Botrytis cinerea [1] = test: In vitro antifungal activity, 96-well microtiter plates; assay type: cell-based; conditions: 1.25 ppm natamycin, 25° C.
Method: The following compositions were tested: […] After incubation of the microtiter plates at 25° C., the in vitro antifungal activity (%) of the individual active ingredients was assessed by calculating the reduction in mould growth observed in the presence of the active ingredient in comparison to the mould growth observed in the absence of the active ingredient. The expected antifungal activity (E in %) of the active ingredient combination was calculated according to the Colby equation (Colby, 1967): […] wherein X and Y are the observed antifungal activities (in %) of the individual active ingredients X and Y, respectively.

Penicillium italicum [2] = test: as above; assay type: cell-based; conditions: 0.63 ppm natamycin, 25° C.
Method: Subsequently, 100 μl of a Botrytis cinerea suspension prepared in PCB medium was used to inoculated each well with 2.5×10^3 spores/ml.
After incubation of the microtiter plates at 25° C., the in vitro antifungal activity (%) of the individual active ingredients was assessed by calculating the reduction in mould growth observed in the presence of the active ingredient in comparison to the mould growth observed in the absence of the active ingredient. The expected antifungal activity (E in %) of the active ingredient combination was calculated according to the Colby equation (Colby, 1967): […]
wherein X and Y are the observed antifungal activities (in %) of the individual active ingredients X and Y, respectively. If the observed antifungal activity (O in %) of the combination exceeds the expected antifungal activity (E in %) of the combination and the resulting synergy factor O/E is thus >1.0, the combined application of the active ingredients leads to a synergistic antifungal effect.
The experiment was conducted as described in Example 10, except for the fact that the following compositions were tested:
Furthermore, Penicillium italicum was used for inoculation. The antifungal activity (in %) of the individual and combined active ingredients was determined according to the method described in Example 10.

Botrytis cinerea [3] = test: Treatment of wounded apples inoculated with Botrytis cinerea (dip, mould growth); assay type: in vivo; conditions: 250 ppm natamycin, 20° C.
Method: Twelf fresh, organic apples were used per treatment. Each apple was wounded once using a cork borer according to the method described by de Lapeyre de Bellaire and Dubois (1987). Subsequently, each wound was inoculated with 10 μl of a Botrytis cinerea suspension containing 1×10^5 of spores/ml. […] In addition, the antifungal compositions comprised 3.1% (w/w) beeswax, 0.76% (w/w) glycerol, 0.66% (w/w) polyoxyethylene sorbitan monostearate (Tween 60), 0.03% (w/w) methylhydroxyethylcellulose (MHEC), 0.02% (w/w) xanthan gum, 0.02% (w/w) anti-foaming agent, 0.15% (w/w) citric acid and 0.01% (w/w) potassium sorbate. The pH of the compositions was 4. […] The treated apples were incubated in a closed box in the dark at 20° C.
During incubation, the treated apples were assessed on mould growth according to the two methods described in Example 8.

Penicillium italicum [4] = test: Treatment of wounded mandarins inoculated with Penicillium italicum (dip, mould growth); assay type: in vivo; conditions: 500 ppm natamycin, 2000 ppm procymidone or both, 20° C.
Method: Ten fresh, organic mandarins were used per treatment. The peel of each mandarin was wounded once using a cork borer according to the method described by de Lapeyre de Bellaire and Dubois (1987). Subsequently, each wound was inoculated with 10 μl of a Penicillium italicum suspension containing 1×10^4 of spores/ml. […] In addition, the antifungal compositions comprised 3.1% (w/w) beeswax, 0.76% (w/w) glycerol, 0.66% (w/w) polyoxyethylene sorbitan monostearate (Tween 60), 0.03% (w/w) methylhydroxyethylcellulose (MHEC), 0.02% (w/w) xanthan gum, 0.02% (w/w) anti-foaming agent, 0.15% (w/w) citric acid and 0.01% (w/w) potassium sorbate. The pH of the compositions was 4. A composition without natamycin or procymidone was used as control.
The treated mandarins were incubated in a closed box in the dark at 20° C. and assessed on mould growth after 6, 8, 10, 13, 15 and 18 days of incubation. The antifungal activity (in %) of the individual and combined active ingredients was determined by calculating the reduction in mould growth observed on the mandarins treated with the antifungal composition in comparison to the mould growth on the mandarins treated with the control composition according to the Colby method (Colby, 1967) described in Example 3.

[5] = 1.5 ppm vinclozolin, 1.25 ppm procymidone, alone or natamycin + one of them, day 3
[6] = 1.5 ppm vinclozolin, 1.25 ppm procymidone, alone or natamycin + one of them, day 6
[7] = 5.0 ppm vinclozolin, 10 ppm procymidone, alone or natamycin + one of them, day 3
[8] = 50 ppm procymidone or both, day 5
[9] = 250 ppm procymidone or both, day 6
[10] = 250 ppm procymidone or both, day 7-11
[11] = 250 ppm procymidone or both, day 12-13
[12] = 250 ppm procymidone or both, day 13
[13] = 250 ppm procymidone or both, day 14
[14] = 250 ppm procymidone or both, day 14-25
[15] = 250 ppm procymidone or both, day 15
[16] = 250 ppm procymidone or both, day 17
[17] = 250 ppm procymidone or both, day 18
[18] = 250 ppm procymidone or both, day 20
[19] = 250 ppm procymidone or both, day 22
[20] = 250 ppm procymidone or both, day 25
[21] = 500 ppm procymidone or both, day 4
[22] = 500 ppm procymidone or both, day 5-6
[23] = 500 ppm procymidone or both, day 7-11
[24] = 500 ppm procymidone or both, day 12
[25] = 500 ppm procymidone or both, day 13
[26] = 500 ppm procymidone or both, day 14
[27] = 500 ppm procymidone or both, day 14-25
[28] = 500 ppm procymidone or both, day 15
[29] = 500 ppm procymidone or both, day 17
[30] = 500 ppm procymidone or both, day 18
[31] = 500 ppm procymidone or both, day 20
[32] = 500 ppm procymidone or both, day 22
[33] = 500 ppm procymidone or both, day 25

| Structure (SMILES) | Observed antifungal activity O (%) (Botrytis cinerea [1]; [5]) | Observed antifungal activity O (%) (Botrytis cinerea [1]; [6]) | Observed antifungal activity O (%) (Penicillium italicum [2]; [7]) | Observed antifungal activity O (%) (Penicillium italicum [2]; [8]) | Number of moulded apples/total number of 12 apples (Botrytis cinerea [3]; [9]) | Number of moulded apples/total number of 12 apples (Botrytis cinerea [3]; [10]) | Number of moulded apples/total number of 12 apples (Botrytis cinerea [3]; [11]) | Observed antifungal activity O (%) (Botrytis cinerea [3]; [12]) | Observed antifungal activity O (%) (Botrytis cinerea [3]; [13]) | Number of moulded apples/total number of 12 apples (Botrytis cinerea [3]; [14]) | Observed antifungal activity O (%) (Botrytis cinerea [3]; [15]) | Observed antifungal activity O (%) (Botrytis cinerea [3]; [16]) | Observed antifungal activity O (%) (Botrytis cinerea [3]; [17]) | Observed antifungal activity O (%) (Botrytis cinerea [3]; [18]) | Observed antifungal activity O (%) (Botrytis cinerea [3]; [19]) | Observed antifungal activity O (%) (Botrytis cinerea [3]; [20]) | Number of moulded apples/total number of 12 apples (Botrytis cinerea [3]; [21]) | Number of moulded apples/total number of 12 apples (Botrytis cinerea [3]; [22]) | Number of moulded apples/total number of 12 apples (Botrytis cinerea [3]; [23]) | Number of moulded apples/total number of 12 apples (Botrytis cinerea [3]; [24]) | further results |
| --- | --- | --- | --- | --- | --- | --- | --- | --- | --- | --- | --- | --- | --- | --- | --- | --- | --- | --- | --- | --- | --- |
| CC12CC1(C)C(=O)N(c1cc(Cl)cc(Cl)c1)C2=O (stereo not drawn) [Procymidone, procymidone] | 0% | 0% | 0% | 0% | 7 and 7/12 | 8 and 8/12 | 12/12 | 65% | 55% | 12/12 | 50% | 44% | 37% | 31% | 26% | 17% | 8 and 8/12 | 8 and 8/12 | 8 and 8/12 | 10 and 10/12 | Number of moulded apples/total number of 12 apples (Botrytis cinerea [3]; [25]): 11 and 11/12; Observed antifungal activity O (%) (Botrytis cinerea [3]; [25]): 75%; Observed antifungal activity O (%) (Botrytis cinerea [3]; [26]): 71%; Number of moulded apples/total number of 12 apples (Botrytis cinerea [3]; [27]): 12/12; Observed antifungal activity O (%) (Botrytis cinerea [3]; [28]): 67%; Observed antifungal activity O (%) (Botrytis cinerea [3]; [29]): 57%; Observed antifungal activity O (%) (Botrytis cinerea [3]; [30]): 51%; Observed antifungal activity O (%) (Botrytis cinerea [3]; [31]): 45%; Observed antifungal activity O (%) (Botrytis cinerea [3]; [32]): 38%; Observed antifungal activity O (%) (Botrytis cinerea [3]; [33]): 26%; Observed antifungal activity O (%) (Penicillium italicum [4]; day 6): 0%; Observed antifungal activity O (%) (Penicillium italicum [4]; day 8): 0%; Observed antifungal activity O (%) (Penicillium italicum [4]; day 10): 0%; Observed antifungal activity O (%) (Penicillium italicum [4]; day 13): 0%; Observed antifungal activity O (%) (Penicillium italicum [4]; day 15): 0%; Observed antifungal activity O (%) (Penicillium italicum [4]; day 18): 0% |
| C[C@@H]1C/C=C/C=C/C=C/C=C/[C@H](O[C@@H]2O[C@H](C)[C@@H](O)[C@H](N)[C@@H]2O)C[C@@H]2O[C@](O)(C[C@@H](O)C[C@H]3O[C@@H]3/C=C/C(=O)O1)C[C@H](O)[C@H]2C(=O)O [Natamycin, natamycin] | 0% | 0% | 0% | 0% | 12/12 | 12/12 | 12/12 | 31% | 26% | 12/12 | 23% | 18% | 18% | 16% | 14% | 14% | 11 and 11/12 | 12 and 12/12 | 12 and 12/12 | 12/12 | Observed antifungal activity O (%) (Botrytis cinerea [1]; 3.0 ppm iprodione or both, day 5): 50%; Observed antifungal activity O (%) (Botrytis cinerea [1]; 7.0 ppm vinclozolin, 2.0 ppm procymidone, alone or natamycin + one of them, day 10): 0%; Observed antifungal activity O (%) (Botrytis cinerea [1]; 8.0 ppm iprodione or both, day 12): 0%; Number of moulded apples/total number of 12 apples (Botrytis cinerea [3]; [25]): 12/12; Observed antifungal activity O (%) (Botrytis cinerea [3]; [25]): 31%; Observed antifungal activity O (%) (Botrytis cinerea [3]; [26]): 26%; Number of moulded apples/total number of 12 apples (Botrytis cinerea [3]; [27]): 12/12; Observed antifungal activity O (%) (Botrytis cinerea [3]; [28]): 23%; Observed antifungal activity O (%) (Botrytis cinerea [3]; [29]): 18%; Observed antifungal activity O (%) (Botrytis cinerea [3]; [30]): 18%; Observed antifungal activity O (%) (Botrytis cinerea [3]; [31]): 16%; Observed antifungal activity O (%) (Botrytis cinerea [3]; [32]): 14%; Observed antifungal activity O (%) (Botrytis cinerea [3]; [33]): 14%; Observed antifungal activity O (%) (Penicillium italicum [4]; day 6): 82%; Observed antifungal activity O (%) (Penicillium italicum [4]; day 8): 73%; Observed antifungal activity O (%) (Penicillium italicum [4]; day 10): 66%; Observed antifungal activity O (%) (Penicillium italicum [4]; day 13): 59%; Observed antifungal activity O (%) (Penicillium italicum [4]; day 15): 55%; Observed antifungal activity O (%) (Penicillium italicum [4]; day 18): 44% |
